Experimental data from ChEMBL document CHEMBL5579820, “New insights into butyrylcholinesterase: Pharmaceutical applications, selective inhibitors and multitarget-directed ligands” (Eur J Med Chem, 2024).

Key:
[1] = biological target: T1, Amine oxidase [flavin-containing] A (Homo sapiens, UniProt P21397); assay: Inhibition of human recombinant MAO-A using kynuramine as substrate by incubated for 75 mins by spectrophotometric analysis
T1 sequence (P21397 whole entry): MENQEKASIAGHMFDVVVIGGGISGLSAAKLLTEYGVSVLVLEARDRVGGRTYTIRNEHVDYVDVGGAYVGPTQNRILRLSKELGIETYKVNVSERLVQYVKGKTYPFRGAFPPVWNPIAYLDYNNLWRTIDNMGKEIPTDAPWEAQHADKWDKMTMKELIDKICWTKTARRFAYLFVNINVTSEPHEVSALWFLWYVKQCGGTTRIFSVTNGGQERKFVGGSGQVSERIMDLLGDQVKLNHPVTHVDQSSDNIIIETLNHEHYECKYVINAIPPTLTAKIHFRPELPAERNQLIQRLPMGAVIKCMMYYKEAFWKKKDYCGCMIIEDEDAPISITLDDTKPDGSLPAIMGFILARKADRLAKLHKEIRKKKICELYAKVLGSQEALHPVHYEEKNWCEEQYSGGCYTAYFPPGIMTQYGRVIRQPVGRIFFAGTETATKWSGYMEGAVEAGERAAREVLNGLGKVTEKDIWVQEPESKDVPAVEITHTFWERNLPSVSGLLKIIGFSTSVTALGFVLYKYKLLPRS

[2] = biological target: Amyloid-beta precursor protein (Homo sapiens) (UniProt P05067); assay: Inhibition of self induced amyloid-beta aggregation (1 to 42 residues) (unknown origin) at 20 uM by ThT fluorescence based spectrofluorimetric analysis relative to control
Sequence of Amyloid-beta precursor protein (Homo sapiens) (P05067 whole entry, the tested form may be a part): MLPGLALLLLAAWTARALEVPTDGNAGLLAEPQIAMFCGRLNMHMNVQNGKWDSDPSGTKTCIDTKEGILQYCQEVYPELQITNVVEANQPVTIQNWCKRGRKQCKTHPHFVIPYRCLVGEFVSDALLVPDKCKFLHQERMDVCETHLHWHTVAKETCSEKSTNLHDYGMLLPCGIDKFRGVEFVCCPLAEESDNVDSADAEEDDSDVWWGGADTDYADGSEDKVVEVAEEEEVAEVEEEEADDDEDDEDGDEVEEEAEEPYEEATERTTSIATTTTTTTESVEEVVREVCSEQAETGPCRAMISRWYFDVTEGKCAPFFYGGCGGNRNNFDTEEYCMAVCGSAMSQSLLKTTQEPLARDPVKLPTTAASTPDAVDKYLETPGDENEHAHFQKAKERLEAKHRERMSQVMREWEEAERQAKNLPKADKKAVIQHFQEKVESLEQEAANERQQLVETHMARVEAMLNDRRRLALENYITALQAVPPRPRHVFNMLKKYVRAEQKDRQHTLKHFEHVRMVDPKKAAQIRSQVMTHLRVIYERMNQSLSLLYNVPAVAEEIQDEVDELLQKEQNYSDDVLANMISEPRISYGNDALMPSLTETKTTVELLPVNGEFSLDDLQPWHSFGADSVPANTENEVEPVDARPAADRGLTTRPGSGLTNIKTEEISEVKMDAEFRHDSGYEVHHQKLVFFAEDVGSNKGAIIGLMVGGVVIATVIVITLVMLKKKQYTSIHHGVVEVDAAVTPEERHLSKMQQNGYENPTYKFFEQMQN

[3] = biological target: T2, Cholinesterase (Equus caballus, UniProt P81908); assay: Inhibition of equine BuChE
T2 sequence (P81908 whole entry): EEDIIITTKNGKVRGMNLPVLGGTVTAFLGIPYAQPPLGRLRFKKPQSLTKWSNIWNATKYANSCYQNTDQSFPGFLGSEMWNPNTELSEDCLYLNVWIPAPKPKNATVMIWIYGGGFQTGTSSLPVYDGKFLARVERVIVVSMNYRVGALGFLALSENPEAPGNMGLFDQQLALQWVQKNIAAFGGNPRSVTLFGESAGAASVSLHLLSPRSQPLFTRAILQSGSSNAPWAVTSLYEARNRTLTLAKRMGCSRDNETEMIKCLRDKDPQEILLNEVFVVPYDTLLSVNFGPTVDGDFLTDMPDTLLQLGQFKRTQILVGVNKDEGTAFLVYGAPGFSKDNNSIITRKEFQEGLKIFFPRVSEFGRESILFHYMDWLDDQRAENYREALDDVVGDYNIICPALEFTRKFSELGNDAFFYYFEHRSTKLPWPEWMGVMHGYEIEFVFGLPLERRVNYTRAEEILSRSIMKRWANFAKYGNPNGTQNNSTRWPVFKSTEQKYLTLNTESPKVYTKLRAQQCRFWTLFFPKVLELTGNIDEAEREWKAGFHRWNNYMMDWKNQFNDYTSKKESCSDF

[4] = Selectivity index, ratio of IC50 for electric eel AChE to IC50 for equine serum BuChE
[5] = biological target: T3, Acetylcholinesterase (Electrophorus electricus, UniProt O42275); assay: Inhibition of electric eel AChE
T3 sequence (O42275 whole entry): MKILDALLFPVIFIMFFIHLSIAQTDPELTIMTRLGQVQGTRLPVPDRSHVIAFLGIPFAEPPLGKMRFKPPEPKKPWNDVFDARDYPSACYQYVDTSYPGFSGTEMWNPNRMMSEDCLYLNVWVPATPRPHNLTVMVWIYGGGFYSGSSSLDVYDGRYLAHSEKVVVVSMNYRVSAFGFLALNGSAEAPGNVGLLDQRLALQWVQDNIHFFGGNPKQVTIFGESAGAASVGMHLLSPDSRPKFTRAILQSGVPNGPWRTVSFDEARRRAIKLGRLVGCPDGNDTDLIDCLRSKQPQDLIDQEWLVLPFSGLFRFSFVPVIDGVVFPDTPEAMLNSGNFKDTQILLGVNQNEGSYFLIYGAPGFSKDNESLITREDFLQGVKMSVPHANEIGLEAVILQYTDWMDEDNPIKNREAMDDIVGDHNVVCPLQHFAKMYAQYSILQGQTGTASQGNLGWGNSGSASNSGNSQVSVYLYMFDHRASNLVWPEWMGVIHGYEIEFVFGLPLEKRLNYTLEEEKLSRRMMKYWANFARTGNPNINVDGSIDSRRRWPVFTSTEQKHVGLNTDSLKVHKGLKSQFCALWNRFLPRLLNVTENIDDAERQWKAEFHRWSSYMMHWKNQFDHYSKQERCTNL

[6] = biological target: T4, Cholinesterase (Homo sapiens, UniProt P06276); assay: Inhibition of human BChE using butyrylthiocholine as substrate by Ellman's method
T4 sequence (P06276 whole entry): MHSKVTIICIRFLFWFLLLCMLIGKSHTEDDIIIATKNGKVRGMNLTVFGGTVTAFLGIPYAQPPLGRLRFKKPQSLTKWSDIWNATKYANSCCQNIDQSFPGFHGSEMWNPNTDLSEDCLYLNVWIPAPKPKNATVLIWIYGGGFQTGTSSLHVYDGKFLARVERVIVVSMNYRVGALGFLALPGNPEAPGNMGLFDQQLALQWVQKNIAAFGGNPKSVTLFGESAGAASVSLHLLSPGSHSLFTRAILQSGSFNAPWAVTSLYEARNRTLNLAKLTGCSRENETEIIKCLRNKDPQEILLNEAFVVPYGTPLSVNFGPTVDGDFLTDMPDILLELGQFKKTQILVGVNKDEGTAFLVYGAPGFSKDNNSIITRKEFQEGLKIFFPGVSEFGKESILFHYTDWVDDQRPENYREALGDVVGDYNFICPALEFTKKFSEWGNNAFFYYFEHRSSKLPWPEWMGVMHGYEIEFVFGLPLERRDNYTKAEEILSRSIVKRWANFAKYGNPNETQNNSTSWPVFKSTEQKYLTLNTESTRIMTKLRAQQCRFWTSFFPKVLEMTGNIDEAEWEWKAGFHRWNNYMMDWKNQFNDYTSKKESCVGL

[7] = biological target: Cholinesterase (Equus caballus) (UniProt P81908); assay: Inhibition of equine BChE at 100 uM by Ellman's method relative to control
Sequence of Cholinesterase (Equus caballus) (P81908 whole entry): as the sequence (P81908 whole entry) above

[8] = Selectivity index, ratio of IC50 for human erythrocyte AChE to IC50 for equine BuChE
[9] = biological target: T4, Cholinesterase; assay: Binding affinity to BChE (unknown origin) assessed as inhibition constant
[10] = biological target: T5, Acetylcholinesterase (Homo sapiens, UniProt P22303); assay: Binding affinity to AChE (unknown origin) assessed as inhibition constant
T5 sequence (P22303 whole entry): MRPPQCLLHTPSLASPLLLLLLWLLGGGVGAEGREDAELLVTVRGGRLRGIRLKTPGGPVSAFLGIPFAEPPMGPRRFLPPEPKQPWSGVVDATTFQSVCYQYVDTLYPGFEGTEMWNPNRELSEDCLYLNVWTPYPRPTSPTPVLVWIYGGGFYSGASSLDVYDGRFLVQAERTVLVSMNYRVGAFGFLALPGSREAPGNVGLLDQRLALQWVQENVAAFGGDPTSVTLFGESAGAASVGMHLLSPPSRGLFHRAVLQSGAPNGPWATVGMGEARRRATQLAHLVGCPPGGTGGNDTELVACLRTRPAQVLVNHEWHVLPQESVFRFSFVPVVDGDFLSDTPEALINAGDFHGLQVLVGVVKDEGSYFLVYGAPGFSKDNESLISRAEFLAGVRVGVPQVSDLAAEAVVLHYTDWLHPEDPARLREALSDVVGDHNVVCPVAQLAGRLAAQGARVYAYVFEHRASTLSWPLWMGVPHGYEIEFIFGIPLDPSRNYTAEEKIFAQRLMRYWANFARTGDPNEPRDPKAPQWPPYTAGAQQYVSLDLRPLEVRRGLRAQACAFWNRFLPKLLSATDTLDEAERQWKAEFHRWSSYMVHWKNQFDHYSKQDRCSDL

[11] = biological target: T4, Cholinesterase; assay: Inhibition of human BChE using butyrylthiocholineiodide as substrate at 10 uM by Ellman's method relative to control
[12] = biological target: T2, Cholinesterase; assay: Inhibition of equine serum BuChE using butyrylthiocholine iodide as substrate preincubated for 60 mins followed by susbtrate addition by Ellaman"s method; assay type: cell-free
[13] = biological target: Acetylcholinesterase (Electrophorus electricus) (UniProt O42275); assay: Inhibition of electric eel AChE using acetylthiocholine iodide as substrate at 50 uM by Ellman's method relative to control
Sequence of Acetylcholinesterase (Electrophorus electricus) (O42275 24-633 limits assumed): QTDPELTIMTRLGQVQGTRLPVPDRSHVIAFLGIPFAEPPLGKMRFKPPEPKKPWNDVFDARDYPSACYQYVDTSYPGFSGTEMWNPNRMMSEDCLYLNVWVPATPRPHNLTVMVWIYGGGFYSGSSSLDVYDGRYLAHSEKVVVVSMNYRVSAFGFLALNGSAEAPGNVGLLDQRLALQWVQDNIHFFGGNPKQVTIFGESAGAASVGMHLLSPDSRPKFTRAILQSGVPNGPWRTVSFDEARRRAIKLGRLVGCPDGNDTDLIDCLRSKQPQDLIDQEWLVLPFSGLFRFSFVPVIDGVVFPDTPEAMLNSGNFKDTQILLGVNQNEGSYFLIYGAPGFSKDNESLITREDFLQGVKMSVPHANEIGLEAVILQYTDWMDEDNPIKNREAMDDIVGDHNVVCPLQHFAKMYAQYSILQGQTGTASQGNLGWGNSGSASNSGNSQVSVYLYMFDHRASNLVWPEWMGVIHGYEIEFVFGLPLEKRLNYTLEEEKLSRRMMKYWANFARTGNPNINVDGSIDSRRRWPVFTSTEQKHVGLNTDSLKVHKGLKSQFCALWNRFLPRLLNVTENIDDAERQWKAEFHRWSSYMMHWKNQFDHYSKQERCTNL

[14] = biological target: T4, Cholinesterase
[15] = Selectivity index, ratio of IC50 for human AChE to IC50 for equine BChE using butyrylthiocholine as substrate
[16] = biological target: T5, Acetylcholinesterase; assay: Inhibition of human AChE at 15 uM relative to control
[17] = biological target: T5, Acetylcholinesterase
[18] = Inhibition of equine serum BChE using butyrylthiocholine iodide as substrate by Ellman's method; parameters: species or system Equus caballus
[19] = biological target: T3, Acetylcholinesterase; assay: Inhibition of Electric eel AChE using […] as substrate by spectrophotometry based Ellman's method

[O-]/[N+](=C\c1ccc2cccc(O)c2n1)Cc1ccccc1
IC50 [1]: > 100 µM

CCN(C)C(=O)Oc1ccc(CCCNC(=O)c2cccc3[nH]c(-c4ccccc4O)nc23)cc1
inhibition [2]: 60.8%

CON(C)C(=O)Oc1cc(C)ccc1C(=O)NCCc1c[nH]c2ccc(Cl)cc12
IC50 [3]: 0.057 µM | Ratio IC50 [4]: > 1750 | IC50 [5]: > 100 µM

C/C(NCCCCNc1c2c(nc3ccccc13)CCCC2)=C(/N=N/c1ccc(C)cc1)C(=O)c1ccccc1
IC50 [6]: 0.35 µM

NNc1nc(NN)nc(NCCNC(=O)c2cc3c([nH]c4ccccc43)c(-c3ccccc3)n2)n1
IC50 [3]: 1 µM | inhibition [7]: 29.5%

CN(C)C(=O)Oc1ccc(C(=O)C2CCC(Cc3ccccc3)CC2)c(OC(=O)N(C)C)c1 (configuration not stated)
IC50 [3]: 0.53 µM | IC50 [5]: 7.8 µM

Fc1ccc2c(c1)c1c(n2CCN2CCCCC2)CCCC1
IC50 [3]: 0.11 µM | IC50 [5]: > 100 µM

CC(C)(C)c1cc(CNCCNc2c3c(nc4ccccc24)CCCCC3)cc(C(C)(C)C)c1O
Ratio IC50 [8]: 23

O=C(Oc1cc(OC(=O)N2CCCCC2)cc(C(O)CN2CCCCC2)c1)N1CCCCC1 (configuration not stated)
Ki [9]: 0.011 µM | Ki [10]: 6.93 µM

COc1cccc(C(=O)OCc2ccccc2)c1OC(=O)N(C)OC
IC50 [3]: 0.99 µM | inhibition [11]: 50% | IC50 [5]: > 100 µM

O=C(NCCCCCCCCNc1c2c(nc3ccccc13)CCCC2)c1ccccc1O
IC50 [12]: 0.01 µM

O=C(Nc1ccccc1Cl)C(NS(=O)(=O)c1ccccc1)c1ccccc1 (configuration not stated)
inhibition [13]: 1.62% | IC50 [3]: 7.33 µM

CCC(CC)CN[C@H](Cc1c[nH]c2ccccc12)C(=O)NCCN1CCc2ccccc2C1
IC50 [5]: > 10 µM | IC50 [14]: 0.3 µM

O=C(CNCCCCNCC(=O)Nc1c2c(nc3c1CCC3)CCCC2)Nc1c2c(nc3c1CCC3)CCCC2
Ratio IC50 [15]: 22

c1ccc(CN2CCC(NCCCCCCn3c4ccccc4c4ccccc43)CC2)cc1
IC50 [3]: 0.18 µM | IC50 [5]: 26.5 µM

CCCCCCNC(=O)Oc1ccc2c(c1)CN1CCc3ccc(/N=N\c4ccccc4)cc3C1N2C (configuration not stated)
inhibition [16]: 54.9% | IC50 [14]: 0.044 µM

CCNC(=S)N/N=C/c1c(OC)cc(OC)c2c(-c3ccccc3)c[nH]c12
IC50 [17]: 59.4 µM | IC50 [14]: 1.95 µM

Cc1ccc(-c2nc3cc(C(=O)NNc4ccc(Br)cc4)ccc3[nH]2)cc1
IC50 [18]: 1.46 µM | IC50 [19]: > 100 µM
